# According to publication PMC5794461, “Kinetic analysis of the isoleucyl‐tRNA synthetase mechanism: the next reaction cycle can start before the previous one ends” (FEBS Open Bio, 2017):
# Target: T1, isoleucyl-tRNA synthetase (IleRS) (Escherichia coli, UniProt P00956)
# T1 construct: gene ileS; full-length native enzyme purified from E. coli B; one-subunit enzyme
# Assay: global best fit of steady-state ATP-PPi exchange and tRNA aminoacylation rates
# Assay type: biochemical
# Settings: AMP·E (segment 1), competitive with MgATP; pH 7.4, 30 °C, Mg-acetate, 50 mM K-acetate, no chloride; unreliable: fitted range open above (360 <)
# Source text: global best fit of steady-state ATP-PPi exchange and tRNA aminoacylation rates on isoleucyl-tRNA synthetase (IleRS)
# T1 sequence (P00956 2-938): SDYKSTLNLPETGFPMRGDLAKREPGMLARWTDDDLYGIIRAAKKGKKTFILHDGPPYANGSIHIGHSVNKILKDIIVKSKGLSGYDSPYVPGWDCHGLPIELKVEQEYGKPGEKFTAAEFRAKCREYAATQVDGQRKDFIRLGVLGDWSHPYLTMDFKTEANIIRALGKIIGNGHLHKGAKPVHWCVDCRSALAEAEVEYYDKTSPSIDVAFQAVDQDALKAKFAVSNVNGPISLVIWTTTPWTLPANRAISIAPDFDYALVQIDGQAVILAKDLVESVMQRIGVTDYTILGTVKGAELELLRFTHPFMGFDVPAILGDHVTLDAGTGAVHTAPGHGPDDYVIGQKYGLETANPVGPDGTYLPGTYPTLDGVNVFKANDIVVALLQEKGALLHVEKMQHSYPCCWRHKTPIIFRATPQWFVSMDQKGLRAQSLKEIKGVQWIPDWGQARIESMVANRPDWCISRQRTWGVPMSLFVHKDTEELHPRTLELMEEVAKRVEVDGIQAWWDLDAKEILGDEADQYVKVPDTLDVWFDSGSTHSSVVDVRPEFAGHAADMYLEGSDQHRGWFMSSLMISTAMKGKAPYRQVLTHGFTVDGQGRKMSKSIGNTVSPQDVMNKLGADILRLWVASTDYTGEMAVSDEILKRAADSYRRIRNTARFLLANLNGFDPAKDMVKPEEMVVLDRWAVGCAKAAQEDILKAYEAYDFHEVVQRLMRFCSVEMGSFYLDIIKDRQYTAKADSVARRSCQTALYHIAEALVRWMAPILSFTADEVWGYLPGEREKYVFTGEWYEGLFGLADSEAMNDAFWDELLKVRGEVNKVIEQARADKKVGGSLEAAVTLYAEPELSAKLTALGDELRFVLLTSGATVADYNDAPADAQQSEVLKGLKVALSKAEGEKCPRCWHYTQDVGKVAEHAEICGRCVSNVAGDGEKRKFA
structure (smiles),measurement,value
Nc1ncnc2c1ncn2[C@@H]1O[C@H](COP(=O)(O)O)[C@@H](O)[C@H]1O [AMP],Value,705 µM
